Assay results as given in article PMC11645656, “MRGPRX4 mediates phospho-drug associated pruritus in a humanized mouse model” (Science translational medicine, 2024).
Values joined by “and” are separate entries in the source; they are usually repeats but may differ in a detail not shown here. Equal values may be shown once.

Tested on: MRGPRX4-expressing HEK293 cells (Gαq signaling pathway)
Experiment: Pharmacological blocker experiments: phospho-drug evoked calcium response in MRGPRX4-expressing HEK293 cells after inhibitor preincubation; also: test concentration or dose not given here

O=C1NC(c2ccccc2)(c2ccccc2)C(=O)N1COP(=O)(O)O [Fosphenytoin]
calcium response trace, fig. S2B (Time 0.8024 s, + Vehicle): 1 | calcium response trace, fig. S2B (Time 0.8024 s, + YM254890): 1 | calcium response trace, fig. S2B (Time 3.296 s, + YM254890): 1.0086 | calcium response trace, fig. S2B (Time 5.8096 s, + YM254890): 1.014 | calcium response trace, fig. S2B (Time 8.3136 s, + YM254890): 1.012 | calcium response trace, fig. S2B (Time 10.8264 s, + YM254890): 1.017 | calcium response trace, fig. S2B (Time 13.3408 s, + YM254890): 1.0091 | calcium response trace, fig. S2B (Time 15.8536 s, + YM254890): 1.017 | calcium response trace, fig. S2B (Time 18.3672 s, + YM254890): 1.0038 | calcium response trace, fig. S2B (Time 20.8808 s, + YM254890): 1.022 and 1.026 | calcium response trace, fig. S2B (Time 23.3848 s, + YM254890): 1.023 and 1.0316 | calcium response trace, fig. S2B (Time 25.8984 s, + YM254890): 1.028 and 1.035 | calcium response trace, fig. S2B (Time 28.392 s, + YM254890): 1.036 and 1.04 | calcium response trace, fig. S2B (Time 30.8952 s, + YM254890): 1.032 and 1.039 | calcium response trace, fig. S2B (Time 33.3896 s, + YM254890): 1.039 and 1.042 | calcium response trace, fig. S2B (Time 35.8728 s, + YM254890): 1.035 and 1.045 | calcium response trace, fig. S2B (Time 38.3656 s, + YM254890): 1.038 and 1.049 | calcium response trace, fig. S2B (Time 40.86 s, + YM254890): 1.038 and 1.045 | calcium response trace, fig. S2B (Time 43.3632 s, + YM254890): 1.041 and 1.036 | calcium response trace, fig. S2B (Time 45.8664 s, + YM254890): 1.037 and 1.041 | calcium response trace, fig. S2B (Time 48.38 s, + YM254890): 1.051 and 1.044 | calcium response trace, fig. S2B (Time 50.8936 s, + YM254890): 1.041 and 1.044 | calcium response trace, fig. S2B (Time 53.4072 s, + YM254890): 1.038 and 1.0407 | calcium response trace, fig. S2B (Time 55.9112 s, + YM254890): 1.034 and 1.044 | calcium response trace, fig. S2B (Time 58.4248 s, + YM254890): 1.04 and 1.039 | calcium response trace, fig. S2B (Time 60.9288 s, + YM254890): 1.042 and 1.044 | calcium response trace, fig. S2B (Time 63.444 s, + YM254890): 1.04 and 1.035 | calcium response trace, fig. S2B (Time 65.9256 s, + YM254890): 1.037 | calcium response trace, fig. S2B (Time 68.4192 s, + YM254890): 1.036 | calcium response trace, fig. S2B (Time 70.9024 s, + YM254890): 1.036 | calcium response trace, fig. S2B (Time 73.3864 s, + YM254890): 1.029 | calcium response trace, fig. S2B (Time 75.8896 s, + YM254890): 1.034 | calcium response trace, fig. S2B (Time 78.3936 s, + YM254890): 1.032 | calcium response trace, fig. S2B (Time 80.9064 s, + YM254890): 1.03 | calcium response trace, fig. S2B (Time 83.4104 s, + YM254890): 1.032 | calcium response trace, fig. S2B (Time 85.9136 s, + YM254890): 1.031 | calcium response trace, fig. S2B (Time 88.4176 s, + YM254890): 1.027 | calcium response trace, fig. S2B (Time 90.9336 s, + YM254890): 1.025 | calcium response trace, fig. S2B (Time 93.4144 s, + YM254890): 1.031 | calcium response trace, fig. S2B (Time 95.908 s, + YM254890): 1.026 | calcium response trace, fig. S2B (Time 98.4016 s, + YM254890): 1.025 | calcium response trace, fig. S2B (Time 100.895 s, + YM254890): 1.029 | calcium response trace, fig. S2B (Time 103.389 s, + YM254890): 1.027 | calcium response trace, fig. S2B (Time 105.892 s, + YM254890): 1.0264 | calcium response trace, fig. S2B (Time 108.406 s, + YM254890): 1.031 | calcium response trace, fig. S2B (Time 110.9 s, + YM254890): 1.026 | calcium response trace, fig. S2B (Time 113.413 s, + YM254890): 1.02 | calcium response trace, fig. S2B (Time 115.917 s, + YM254890): 1.023 | calcium response trace, fig. S2B (Time 118.43 s, + YM254890): 1.023 | calcium response trace, fig. S2B (Time 120.934 s, + YM254890): 1.021 | calcium response trace, fig. S2B (Time 123.45 s, + YM254890): 1.02 | calcium response trace, fig. S2B (Time 125.93 s, + YM254890): 1.014 | calcium response trace, fig. S2B (Time 128.414 s, + YM254890): 1.021 | calcium response trace, fig. S2B (Time 130.908 s, + YM254890): 1.026 | calcium response trace, fig. S2B (Time 133.402 s, + YM254890): 1.02 | calcium response trace, fig. S2B (Time 135.905 s, + YM254890): 1.011 | calcium response trace, fig. S2B (Time 138.41 s, + YM254890): 1.019 | calcium response trace, fig. S2B (Time 140.942 s, + YM254890): 1.016 | calcium response trace, fig. S2B (Time 143.446 s, + YM254890): 1.018 | calcium response trace, fig. S2B (Time 145.949 s, + YM254890): 1.014 | calcium response trace, fig. S2B (Time 148.465 s, + YM254890): 1.02 | calcium response trace, fig. S2B (Time 150.996 s, + YM254890): 1.016 | calcium response trace, fig. S2B (Time 153.49 s, + YM254890): 1.011 | calcium response trace, fig. S2B (Time 156.003 s, + YM254890): 1.016 | calcium response trace, fig. S2B (Time 158.497 s, + YM254890): 1.014 | calcium response trace, fig. S2B (Time 161 s, + YM254890): 1.008 | calcium response trace, fig. S2B (Time 163.494 s, + YM254890): 1.02 | calcium response trace, fig. S2B (Time 165.987 s, + YM254890): 1.0117 | calcium response trace, fig. S2B (Time 168.481 s, + YM254890): 1.018 | calcium response trace, fig. S2B (Time 170.974 s, + YM254890): 1.011 | calcium response trace, fig. S2B (Time 173.488 s, + YM254890): 1.015 | calcium response trace, fig. S2B (Time 175.991 s, + YM254890): 1.0057 | calcium response trace, fig. S2B (Time 178.505 s, + YM254890): 1.009 | calcium response trace, fig. S2B (Time 181.018 s, + YM254890): 1.011 | calcium response trace, fig. S2B (Time 183.532 s, + YM254890): 1.014 | calcium response trace, fig. S2B (Time 186.036 s, + YM254890): 1.016 | calcium response trace, fig. S2B (Time 188.549 s, + YM254890): 1.014 | calcium response trace, fig. S2B (Time 191.053 s, + YM254890): 1.017 | calcium response trace, fig. S2B (Time 193.556 s, + YM254890): 1.013 | calcium response trace, fig. S2B (Time 196.05 s, + YM254890): 1.011 | calcium response trace, fig. S2B (Time 198.533 s, + YM254890): 1.011
